{"source": "patent US20240400547A1", "about": "“2,6-PIPERIDINEDIONE COMPOUND AND APPLICATION THEREOF” (MEDSHINE DISCOVERY INC., priority 2021, published 2024)", "system": "human B-cell lymphoma OCI-LY10 cells", "assay": "In vivo efficacy in SCID mouse xenograft model of human B-cell lymphoma OCI-LY10 cells", "set-up": "species or system SCID mice", "conditions": "for Tumor volume (Day 0): Day 0 (grouping, baseline); for Tumor volume (Day 0) / Tumor volume (Day 28): average, SEM in next grid line", "method": "The study evaluates the antitumor effect of the test compounds using a SID mouse xenograft model of human B-cell lymphoma OCI-LY10 cells.\n• 1. Experimental animals: SCID mice, female, 6 to 8 weeks old, weighing 17 to 20 g. Beijing Vital River Laboratory Animal Technology Co., Ltd. • 2. Cell line: The human B-cell lymphoma OCI-LY10 cell line was purchased from Nanjing Cobioer Biosciences Co. Ltd (Cat. No CBP60558).\nOCI-LY10 cells were cultured in IMDM medium containing 20% FBS and maintained in a 37° C. incubator with 5% CO2 and saturated humidity. Log phase OCI-LY10 cells were collected, resuspended in IMDM basic medium, and mixed 1:1 with Matrigel. The cell concentration was adjusted to 4×10^7/mL. Under sterile conditions, 0.1 mL of the cell suspension was inoculated subcutaneously into the right flank of SCID mice, with an inoculation concentration of 4×10^6/0.1 mL/mouse.\nFor the pharmacological experiment, once the tumors reached a certain size, animals with tumors that were either too large, too small, or irregularly shaped were eliminated. Animals with tumor volumes between 167.65 and 231.29 mm^3 were selected. Based on tumor volume, the animals were divided into groups using a random grouping method, with each group consisting of six mice, and the average tumor volume was approximately 201.15 mm^3. The day of grouping was designated as Day 0, and dosing began according to the body weight of the animals. The pharmacological study period lasted for 28 days, with dosing once a day and a 24-hour interval between doses. Intragastric administration was used for administration. During the experiment, the body weight and tumor size of the animals were measured twice a week. Clinical symptoms were observed and recorded daily.\nThe test compounds were administered at doses of 10 mg/kg, 30 mg/kg, and 100 mg/kg, with a solvent composition of 10% DMSO/10% Solutol/80% H2O. The formula for calculating tumor volume (TV) was: 1/2×a×b^2, where a and b were the measured length and width of the tumor, respectively. The formula for calculating the Tumor Growth Inhibition (TGI) rate was: TGI (%)=[(1−(average tumor volume at the end of administration in a treatment group−average tumor volume at the beginning of administration in this treatment group))/(average tumor volume at the end of treatment in the vehicle control group−average tumor volume at the beginning of treatment in the vehicle control group)]×100%. Relative Tumor Proliferation rate T/C (%): the calculation formula was as follows: T/C %=TRTV/CRTV×100% (TRTV: average RTV of the treatment group; CRTV: average RTV of the negative control group). According to the results of tumor measurement, the relative tumor volume (RTV) was calculated, and the calculation formula was RTV=Vt/V0, where V0 was the tumor volume measured at the time of group administration (i.e. Day 0), VT was the tumor volume at a certain measurement, and TRTV and CRTV were taken from the same day's data.\nIn this study, experimental data were presented in Mean±SEM.\nStatistical analysis was performed using IBM SPSS Statistics software based on the RTV data at the end of the experiment. For comparisons between two groups, a T test was used. For comparisons among three or more groups, one-way ANOVA was utilized. If the variance was homogenous (no significant difference in F value), Tukey's method was applied for analysis. If the variance was heterogeneous (significant difference in F value), the Games-Howell method was used for testing. A p-value of […] was considered statistically significant.", "key": {"[1]": {"conditions": "10 mg/kg intragastric once a day"}, "[2]": {"conditions": "30 mg/kg intragastric once a day"}, "[3]": {"conditions": "100 mg/kg intragastric once a day"}}, "note": "Structures can show the parent of a compound that is named as a salt.", "data": [{"smiles": "O=C1CCC(c2noc3ccc4c(NC(=O)CN5CCN(C[C@H]6CC[C@H](n7cc(NC(=O)c8coc(-c9ccnc(NCC%10CC%10)c9)n8)c(C(F)F)n7)CC6)CC5)cccc4c23)C(=O)N1", "note": "(stereo partly drawn) [Hydrochloride of WX014]", "values": [{"measurement": "Tumor volume (Day 0)", "setting": "[1]", "result": 202.43, "unit": "mm^3"}, {"measurement": "T/C (%) (Day 28)", "setting": "[1]", "result": 47.40, "unit": "%"}, {"measurement": "TGI (%) (Day 28)", "setting": "[1]", "result": 60.43, "unit": "%"}, {"measurement": "Tumor volume (Day 28)", "setting": "[1]", "result": 685.61, "unit": "mm^3"}, {"measurement": "Tumor volume (Day 0)", "setting": "[2]", "result": 199.80, "unit": "mm^3"}, {"measurement": "T/C (%) (Day 28)", "setting": "[2]", "result": 23.07, "unit": "%"}, {"measurement": "TGI (%) (Day 28)", "setting": "[2]", "result": 89.94, "unit": "%"}, {"measurement": "Tumor volume (Day 28)", "setting": "[2]", "result": 322.68, "unit": "mm^3"}, {"measurement": "Tumor volume (Day 0)", "setting": "[3]", "result": 199.75, "unit": "mm^3"}, {"measurement": "T/C (%) (Day 28)", "setting": "[3]", "result": 12.80, "unit": "%"}, {"measurement": "TGI (%) (Day 28)", "setting": "[3]", "result": 100.96, "unit": "%"}, {"measurement": "Tumor volume (Day 28)", "setting": "[3]", "result": 188.01, "unit": "mm^3"}]}]}
